Measured values: patent US20180073031A1, “TRANSCRIPTIONAL SENSOR FOR BILE ACIDS IN BACTEROIDES THETAIOTAOMICRON” (priority 2016, published 2018)

Key:
[1] = test system: bile acid sensor BreR from V. cholerae; assay type: cell-based; settings: for sensor sensitive to substance (FIG. 4 legend): in vitro functionality; for Sensitivity: BreR bile acid sensor in B. thetaiotaomicron; for Sensitivity / Basal Activity: ± SD; for Basal Activity / Dynamic Range: BreR bile acid sensor; for Basal Activity: basal reporter luminescence; for Dynamic Range: reporter induction; for induction of reporter luminescence by bile acid: strain grown with various concentrations of bile acids, FIGS. 4B-4G
[2] = test system: VFA0359 from Vibrio fischeri; test: Luciferase assay of bile acid sensor using VFA0359 in B. thetaiotaomicron; assay type: cell-based; settings: same operator sequence as BreR

SMILES | sensor sensitive to substance (FIG. 4 legend) [1] | Sensitivity [1] [Lum/μM*10^−5] | Basal Activity [1] [Lum × 10^4] | Dynamic Range [1] [fold-change] | induced gene expression of the reporter construct [2] [fold] | induction of reporter luminescence by bile acid [1] | relative sensitivity of the sensor among deconjugated bile acids [1]
CC(C)CCC[C@@H](C)[C@H]1CC[C@H]2[C@@H]3CC=C4C[C@@H](O)CC[C@]4(C)[C@H]3CC[C@]12C [cholesterol] | not | – | – | – | – | – | –
C[C@H](CCC(=O)O)[C@H]1CC[C@H]2[C@@H]3CC[C@@H]4C[C@H](O)CC[C@]4(C)[C@H]3C[C@H](O)[C@]12C [DCA, deoxycholic acid] | – | 25.8 ± 7.6 | 1.7 ± 0.8 | 71.5 ± 3.4 | ~600 | – | –
C[C@H](CCC(=O)NCC(=O)O)[C@H]1CC[C@H]2[C@@H]3[C@H](O)C[C@@H]4C[C@H](O)CC[C@]4(C)[C@H]3C[C@H](O)[C@]12C [GCA, glycocholic acid] | not | – | – | – | – | does not sense | –
C[C@H](CCC(=O)O)[C@H]1CC[C@H]2[C@@H]3CC[C@@H]4C[C@H](O)CC[C@]4(C)[C@H]3CC[C@]12C [LCA, lithocholic acid] | – | 1.4 ± 0.8 | 2.2 ± 0.9 | 17.5 ± 4.9 | – | – | –
C[C@H](CCC(=O)NCCS(=O)(=O)O)[C@H]1CC[C@H]2[C@@H]3[C@H](O)C[C@@H]4C[C@H](O)CC[C@]4(C)[C@H]3C[C@H](O)[C@]12C [TCA, taurocholic acid] | not | – | – | – | – | does not sense | –
C[C@H](CCC(=O)O)[C@H]1CC[C@H]2[C@@H]3[C@H](O)C[C@@H]4C[C@H](O)CC[C@]4(C)[C@H]3C[C@H](O)[C@]12C [CA, cholic acid] | sensitive | 0.8 ± 0.2 | 2.1 ± 0.7 | 18.5 ± 3.8 | – | induced luminescence in a dose dependent manner | least sensitive
C[C@H](CCC(=O)O)[C@H]1CC[C@H]2[C@@H]3[C@H](O)C[C@@H]4C[C@H](O)CC[C@]4(C)[C@H]3CC[C@]12C [CDCA, chenodeoxycholic acid] | sensitive | 2.3 ± 1.1 | 1.9 ± 0.4 | 25.8 ± 11.1 | – | induced luminescence in a dose dependent manner | moderately sensitive
